Measured values published in patent US20130149269A1, “NOVEL MALODOR COUNTERACTANT” (priority 2011, published 2013).

Assays:
[1] = Mold/mildew malodor counteracting test, trained sensory panel (LMS rating); settings: for Malodor Intensity / % MOR: mold/mildew malodor; for Malodor Intensity: mean LMS 0-100, 24 hours equilibration; for % MOR: relative to Malodor Alone
Source text: (§1) Establishment of Malodor Models: A number of malodorous chemicals have been identified, which are associated with different types of malodors. Commercial samples of these chemicals (commercially available at Sigma-Aldrich Inc.) were thus used in the present invention as malodorous model compounds to assess the effectiveness of methyl 3-methyl cyclohexane carboxylate in counteracting malodors.
(§2) A model of bathroom malodor was established using a solution of isovaleric acid (“IVA”) in diethyl phthalate (“DEP”) (10% by weight). A model of sweat malodor was established using a solution of 3-methyl-2-hexanoic acid in DEP (5% by weight). A model of mold/mildew malodors was established using a solution of 2-ethyl-1-hexanol in DEP (20% by weight). A model of smoke malodor was established by applying a solution of 3-acetyl pyridine in DEP (5% by weight) onto a piece of cloth.
(§3) Preparation of Test Samples: Methyl 3-methyl cyclohexane carboxylate was prepared at a series of concentrations, ranging from 0.1% to 5% in DEP, with corresponding vapor phase concentrations ranging from about 4 μg to about 0.2 mg per liter of air space.
(§4) A malodor material as established above (1 g) and a solution of methyl 3-methyl cyclohexane carboxylate in DEP (1 g) were pipetted into separate aluminum weighing dishes located at the bottom of a 32 oz. jar (1 L). For negative control samples (Malodor Alone), the malodor material (0.5 g) was pipetted into each of the two dishes located at the bottom of jar. Jars were then capped and the samples were allowed to equilibrate for 24 hours before testing.
(§5) Testing Procedure: Test samples were presented in a blind and pseudorandom order to a group of trained panelists (consisting of 12-17 females with a mean age of 40 years). The panelists were instructed to take the following steps: i) sniff malodor reference jars for familiarization prior to each testing session; ii) uncap a jar; iii) place their noses at a distance of about 3-4 inches above the opening; iv) take short sniffs for about 2-3 seconds; and v) enter a rating of overall intensity and malodor intensity on a handheld computer.
(§6) The overall and malodor intensity was rated using the Labeled Magnitude Scale (LMS) [Green, et al., Chemical Senses, 21(3), June 1996, 323-334]. Mean (“Malodor Intensity”) and standard error of the mean (“SE”, ±) were obtained, where 0 represents “No Sensation” and 100 represents “The Strongest Imaginable Malodor Sensation”. Percent malodor reduction (“% MOR”) represents the perceived reduction in mean malodor intensity of the sample containing the malodor in the presence of methyl 3-methyl cyclohexane carboxylate relative to the negative control (Malodor Alone).

[2] = Bathroom malodor counteracting test, trained sensory panel (LMS rating); settings: for Malodor Intensity / % MOR: bathroom malodor; for Malodor Intensity: mean LMS 0-100, 24 hours equilibration; for % MOR: relative to Malodor Alone
Source text: as §1, §2, §3, §4, §5, §6

[3] = Sweat malodor counteracting test, trained sensory panel (LMS rating); settings: for Malodor Intensity / % MOR: sweat malodor; for Malodor Intensity: mean LMS 0-100, 24 hours equilibration; for % MOR: relative to Malodor Alone
Source text: as §1, §2, §3, §4, §5, §6

[4] = Smoke malodor counteracting test, trained sensory panel (LMS rating); settings: for Malodor Intensity / % MOR: smoke malodor; for Malodor Intensity: mean LMS 0-100, 24 hours equilibration; for % MOR: relative to Malodor Alone
Source text: as §1, §2, §3, §4, §5, §6

[5] = overall conclusion, 0.1% to 5% in DEP

## COC(=O)C1CCCC(C)C1 (stereo not drawn) [Methyl 3-Methyl Cyclohexane Carboxylate, methyl 3-methyl cyclohexane carboxylate]
[1]; 0.1% in DEP, 4 μg/L
  Malodor Intensity: 9.88
  % MOR: 40.01%
[1]; 0.5% in DEP, 21 μg/L
  Malodor Intensity: 5.44
  % MOR: 69.56%
[1]; 1% in DEP, 42 μg/L
  Malodor Intensity: 4.44
  % MOR: 76.51%
[1]; 5% in DEP, 208 μg/L
  Malodor Intensity: 3.34
  % MOR: 83.07%
[1]; [5]
  counteracting the mold/mildew malodor (result in words): effective
[2]; 0.1% in DEP, 4 μg/L
  Malodor Intensity: 8.65
  % MOR: 56.93%
[2]; 0.5% in DEP, 21 μg/L
  Malodor Intensity: 5.44
  % MOR: 66.47%
[2]; 1% in DEP, 42 μg/L
  Malodor Intensity: 2.69
  % MOR: 86.11%
[2]; 5% in DEP, 208 μg/L
  Malodor Intensity: 1.71
  % MOR: 90.86%
[2]; [5]
  counteracting the bathroom malodor (result in words): effective
[3]; [5]
  counteracting the sweat malodor (result in words): effective
[3]; 0.1% in DEP, 4 μg/L
  Malodor Intensity: 4.48
  % MOR: 77.92%
[3]; 0.5% in DEP, 21 μg/L
  Malodor Intensity: 5.12
  % MOR: 72.63%
[3]; 1% in DEP, 42 μg/L
  Malodor Intensity: 5.42
  % MOR: 73.14%
[3]; 5% in DEP, 208 μg/L
  Malodor Intensity: 3.55
  % MOR: 81.47%
[4]; [5]
  counteracting the smoke malodor (result in words): effective
[4]; 0.1% in DEP, 4 μg/L
  Malodor Intensity: 10.02
  % MOR: 51.95%
[4]; 0.5% in DEP, 21 μg/L
  Malodor Intensity: 7.23
  % MOR: 66.04%
[4]; 1% in DEP, 42 μg/L
  Malodor Intensity: 4.78
  % MOR: 77.57%
[4]; 5% in DEP, 208 μg/L
  Malodor Intensity: 4.23
  % MOR: 80.07%
